Reference: PubChem BioAssay AID328 (DTP/NCI, 2004)
Several values for one entry are separate records, joined by “and”; a condition that tells them apart may be missing. Equal entries are not always repeated. Toxic doses and inconclusive results are not listed.

System: BDF1 mice, P388 leukemia ip, median survival T/C
Experiment: NCI In Vivo Anticancer Drug Screen. Data for tumor model P388 Leukemia (intraperitoneal) in B6D2F1 (BDF1) mice
Details: endpoint: median survival time, higher = longer survival
Outline: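 Transplantable tumour in mice; compound vs vehicle dosing; survival scored; ratio of treated to control reported.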

[1] = dose: 12.5 mg/kg/injection, schedule: Q01DX009 (ip), vehicle: saline with Tween-80
[2] = dose: 25.0 mg/kg/injection, schedule: Q01DX009 (ip), vehicle: saline with Tween-80
[3] = dose: 50.0 mg/kg/injection, schedule: Q04DX003 (ip), vehicle: saline with Tween-80
[4] = dose: 50.0 mg/kg/injection, schedule: Q01DX009 (ip), vehicle: saline with Tween-80
[5] = dose: 50.0 mg/kg/injection, schedule: Q01DX009 (ip), vehicle: Klucel (hydroxypropylcellulose) (HPC)
[6] = dose: 100.0 mg/kg/injection, schedule: Q01DX009 (ip), vehicle: Klucel (hydroxypropylcellulose) (HPC)
[7] = dose: 50.0 mg/kg/injection, schedule: Q01DX005 (ip), vehicle: saline with Tween-80
[8] = dose: 100.0 mg/kg/injection, schedule: Q01DX005 (ip), vehicle: saline with Tween-80
[9] = dose: 200.0 mg/kg/injection, schedule: Q01DX005 (ip), vehicle: saline with Tween-80
[10] = dose: 100.0 mg/kg/injection, schedule: Q01DX009 (ip), vehicle: saline with Tween-80

Cc1cc(Oc2ccc(Cl)cc2NC(=O)Nc2cccc(C(F)(F)F)c2)cc(S(=O)(=O)O)c1Cl
T/C (dose: 25.0 mg/kg/injection, schedule: Q01DX001 (ip), vehicle: other): 100 % of control
T/C (dose: 50.0 mg/kg/injection, schedule: Q01DX001 (ip), vehicle: other): 108 % of control
T/C (dose: 100.0 mg/kg/injection, schedule: Q01DX001 (ip), vehicle: other): 100 % of control

N#CCC(C#N)N1CCOCC1 (stereo not drawn)
T/C (dose: 6.25 mg/kg/injection, schedule: Q01DX009 (ip), vehicle: saline with Tween-80): 111 % of control
T/C [1]: 96 % of control
T/C [2]: 88 % of control
T/C [3]: 104 % of control
T/C (dose: 100.0 mg/kg/injection, schedule: Q04DX003 (ip), vehicle: saline with Tween-80): 108 % of control

Cc1ccc(Cc2c(C=O)nc(N)[nH]c2=O)c2ccccc12
T/C [1]: 112 % of control
T/C [2]: 96 % of control
T/C [4]: 102 % of control
T/C (dose: 50.0 mg/kg/injection, schedule: Q01DX009 (ip), vehicle: suspension in saline): 97 % of control
T/C (dose: 100.0 mg/kg/injection, schedule: Q01DX009 (ip), vehicle: suspension in saline): 94 % of control
T/C (dose: 200.0 mg/kg/injection, schedule: Q01DX009 (ip), vehicle: suspension in saline): 106 % of control

O=[N+]([O-])c1ccc(S(=O)(=O)N/N=C\c2ccc(Cl)c(Cl)c2)cc1
T/C [1]: 95 % of control
T/C [2]: 92 % of control
T/C [4]: 100 % of control

CO/N=C/c1ccc([N+](=O)[O-])s1
T/C (dose: 12.0 mg/kg/injection, schedule: Q04DX003 (ip), vehicle: Klucel (hydroxypropylcellulose) (HPC)): 118 % of control
T/C (dose: 25.0 mg/kg/injection, schedule: Q01DX009 (ip), vehicle: Klucel (hydroxypropylcellulose) (HPC)): 100 % of control
T/C (dose: 25.0 mg/kg/injection, schedule: Q04DX003 (ip), vehicle: Klucel (hydroxypropylcellulose) (HPC)): 113 % of control
T/C [5]: 108 % of control
T/C (dose: 50.0 mg/kg/injection, schedule: Q04DX003 (ip), vehicle: Klucel (hydroxypropylcellulose) (HPC)): 104 % of control
T/C [6]: 108 % of control

CN(C)c1ccc(/C=C/c2cccc(/C=C/c3ccc(N(C)C)cc3)[n+]2[O-])cc1
T/C [7]: 91 % of control
T/C [8]: 89 % of control
T/C [9]: 93 % of control

O=C1c2cccc(O)c2C(=O)c2c(O)cc(CO)cc21
T/C (dose: 8.8 mg/kg/injection, schedule: Q01DX010 (ip), vehicle: other): 100 % of control
T/C (dose: 10.0 mg/kg/injection, schedule: Q01DX010 (ip), vehicle: carboxymethylcellulose (CMC)): 122 % of control
T/C (dose: 10.0 mg/kg/injection, schedule: Q01DX010 (ip), vehicle: other): 108 % of control
T/C (dose: 13.0 mg/kg/injection, schedule: Q01DX010 (ip), vehicle: other): 111 % of control
T/C (dose: 16.0 mg/kg/injection, schedule: Q01DX009 (ip), vehicle: gum acacia): 97 % of control
T/C (dose: 20.0 mg/kg/injection, schedule: Q01DX009 (ip), vehicle: gum acacia): 106 % of control
T/C (dose: 20.0 mg/kg/injection, schedule: Q01DX010 (ip), vehicle: carboxymethylcellulose (CMC)): 94 % of control
T/C (dose: 20.0 mg/kg/injection, schedule: Q01DX010 (ip), vehicle: other): 154 % of control
T/C (dose: 25.0 mg/kg/injection, schedule: Q01DX009 (ip), vehicle: gum acacia): 97 % of control
T/C (dose: 40.0 mg/kg/injection, schedule: Q01DX010 (ip), vehicle: carboxymethylcellulose (CMC)): 116 % of control
T/C (dose: 40.0 mg/kg/injection, schedule: Q01DX010 (ip), vehicle: other): 120 % of control
T/C (dose: 80.0 mg/kg/injection, schedule: Q01DX010 (ip), vehicle: carboxymethylcellulose (CMC)): 122 % of control

C[N+](C)(Cc1ccccc1)CC(O)COc1ccccc1 (stereo not drawn)
T/C [1]: 96 % of control
T/C (dose: 12.5 mg/kg/injection, schedule: Q04DX003 (ip), vehicle: saline with Tween-80): 118 % of control
T/C [2]: 103 % of control
T/C (dose: 25.0 mg/kg/injection, schedule: Q04DX003 (ip), vehicle: saline with Tween-80): 113 % of control
T/C [3]: 104 % of control

CCCCN(CCCC)CCC(O)c1cc(-c2ccc(C(F)(F)F)cc2)nc(C(F)(F)F)c1 (stereo not drawn)
T/C [4]: 106 % of control

Cc1ccc(NS(=O)(=O)c2ccc([N+](=O)[O-])cc2)cc1
T/C [1]: 90 % of control
T/C (dose: 33.0 mg/kg/injection, schedule: Q01DX009 (ip), vehicle: saline with Tween-80): 100 % of control
T/C [4]: 90 % of control and 100 % of control
T/C (dose: 75.0 mg/kg/injection, schedule: Q01DX009 (ip), vehicle: saline with Tween-80): 95 % of control
T/C [10]: 100 % of control

Cc1ccc(N=NNc2ccc(C)cc2)cc1
T/C (dose: 100.0 mg/kg/injection, schedule: Q01DX001 (ip), vehicle: Klucel (hydroxypropylcellulose) (HPC)): 104 % of control
T/C (dose: 200.0 mg/kg/injection, schedule: Q01DX001 (ip), vehicle: Klucel (hydroxypropylcellulose) (HPC)): 104 % of control
T/C (dose: 400.0 mg/kg/injection, schedule: Q01DX001 (ip), vehicle: Klucel (hydroxypropylcellulose) (HPC)): 112 % of control

Nc1c(C(=O)O)[nH]c(=O)[nH]c1=O
T/C [4]: 113 % of control
T/C [10]: 219 % of control

CC1(C)OC(C)(C)c2c1nnc(-c1ccccc1)[n+]2[O-]
T/C [7]: 91 % of control
T/C [8]: 98 % of control
T/C [9]: 88 % of control

CC(=O)[C@H]1[C@H](O)C[C@H]2[C@@H]3CCC4=CC(=O)CC[C@]4(C)[C@@]3(F)[C@@H](O)C[C@@]21C
T/C (dose: 100.0 mg/kg/injection, schedule: Q04DX003 (ip), vehicle: saline): 100 % of control
T/C (dose: 200.0 mg/kg/injection, schedule: Q04DX003 (ip), vehicle: saline): 113 % of control
T/C (dose: 400.0 mg/kg/injection, schedule: Q04DX003 (ip), vehicle: saline): 113 % of control

Cc1ccc(S(=O)(=O)OCCN(CCOS(=O)(=O)c2ccc(C)cc2)c2ccc(N=O)cc2)cc1
T/C (dose: 66.0 mg/kg/injection, schedule: Q04DX003 (ip), vehicle: saline sonified): 195 % of control
T/C (dose: 100.0 mg/kg/injection, schedule: Q04DX003 (ip), vehicle: saline sonified): 200 % of control
T/C (dose: 150.0 mg/kg/injection, schedule: Q04DX003 (ip), vehicle: saline sonified): 216 % of control

CC(c1ccccc1)N1CCS(=O)(=O)CC1 (stereo not drawn)
T/C [5]: 93 % of control
T/C [6]: 106 % of control
T/C (dose: 200.0 mg/kg/injection, schedule: Q01DX009 (ip), vehicle: Klucel (hydroxypropylcellulose) (HPC)): 90 % of control

COC(=O)C12OCC34C(CC5=C(C)C(=O)C(O)=CC5(C)C3C(O)C1O)OC(=O)C(OC(=O)/C=C(\C)C(C)C)C24 (stereo not drawn)
T/C (dose: 31.0 micrograms/kg/injection, schedule: Q01DX009 (ip), vehicle: saline + alcohol): 120 % of control
T/C (dose: 62.0 micrograms/kg/injection, schedule: Q01DX009 (ip), vehicle: saline + alcohol): 115 % of control
T/C (dose: 250.0 micrograms/kg/injection, schedule: Q01DX009 (ip), vehicle: saline + alcohol): 100 % of control
T/C (dose: 500.0 micrograms/kg/injection, schedule: Q01DX009 (ip), vehicle: saline + alcohol): 105 % of control
T/C (dose: 1000.0 micrograms/kg/injection, schedule: Q01DX009 (ip), vehicle: saline + alcohol): 120 % of control
T/C (dose: 2000.0 micrograms/kg/injection, schedule: Q01DX009 (ip), vehicle: saline + alcohol): 110 % of control

CC(=O)/C(C)=C/C=O
T/C (dose: 0.25 mg/kg/injection, schedule: Q01DX009 (ip), vehicle: water): 116 % of control
T/C (dose: 0.5 mg/kg/injection, schedule: Q01DX009 (ip), vehicle: water): 89 % of control and 96 % of control and 116 % of control
T/C (dose: 1.0 mg/kg/injection, schedule: Q01DX009 (ip), vehicle: water): 97 % of control and 103 % of control and 116 % of control
T/C (dose: 2.0 mg/kg/injection, schedule: Q01DX009 (ip), vehicle: water): 94 % of control and 97 % of control
T/C (dose: 4.0 mg/kg/injection, schedule: Q01DX009 (ip), vehicle: water): 96 % of control and 97 % of control and 116 % of control
T/C (dose: 8.0 mg/kg/injection, schedule: Q01DX009 (ip), vehicle: water): 103 % of control
